Measurements reported in publication PMC10287183 (Antiviral Research, 2023).

Key:
[1] = tested on: CatB and CatL; test: Z-Phe-Arg-AMC substrate degradation in whole cell lysates with CA-074; type: biochemical; details: CA-074 10 μM
[2] = tested on: SARS-CoV-2 Omicron; test: microbe, parasite or virus in culture; type: cell-based; details: Severe acute respiratory syndrome coronavirus 2, read-out: EC90 (mean ± SD)
[3] = in vitro; details: human
[4] = in vitro; details: human; remark: listed apart in the source

Structure (SMILES)	Z-Phe-Arg-AMC substrate degradation ([1]; Calu-3 whole cell lysate)	Z-Phe-Arg-AMC substrate degradation ([1]; Huh7-hACE2 whole cell lysate)	Z-Phe-Arg-AMC substrate degradation ([1]; Vero E6 whole cell lysate)	EC90 [2]	CC50 [3]	CC50 [4]
CCCNC(=O)[C@H]1O[C@@H]1C(=O)N[C@H](C(=O)N1CCC[C@H]1C(=O)O)[C@@H](C)CC [CA-074]	almost completely abolished	almost completely abolished	did not reduce substrate degradation			
CCN(CCO)CCCC(C)Nc1ccnc2cc(Cl)ccc12 (stereo not shown) [Hydroxychloroquin, Hydroxychloroquine]				7.7 ± 1.2 µM		
O=[N+]([O-])c1ccc(O)c2ncccc12 [Nitroxoline, nitroxoline]				6.4 ± 0.6 µM	> 100 µM	> 100 µM
